Reference: BindingDB's records for doi:10.1016/j.chembiol.2010.07.014 (Brandeis University, 2010)

What was measured:
Experiment in all cases: Inhibition Assay
Conditions in all cases: pH 8; 25 °C
[1] = target: T1, Inosine-5'-monophosphate dehydrogenase (Borreliella burgdorferi (strain ATCC 35210 / DSM 4680 / CIP 102532 / B31), UniProt P49058)
T1 sequence (P49058 whole entry): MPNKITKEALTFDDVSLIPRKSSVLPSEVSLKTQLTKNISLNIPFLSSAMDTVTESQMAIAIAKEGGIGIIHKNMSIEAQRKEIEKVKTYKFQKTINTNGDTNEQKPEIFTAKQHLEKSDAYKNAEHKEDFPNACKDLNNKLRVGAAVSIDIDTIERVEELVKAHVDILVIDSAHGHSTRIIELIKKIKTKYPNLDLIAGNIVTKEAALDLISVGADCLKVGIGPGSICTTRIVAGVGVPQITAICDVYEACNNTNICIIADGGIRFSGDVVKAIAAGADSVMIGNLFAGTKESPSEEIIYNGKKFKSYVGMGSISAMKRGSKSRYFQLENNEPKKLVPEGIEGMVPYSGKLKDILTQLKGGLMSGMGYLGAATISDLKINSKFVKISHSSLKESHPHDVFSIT
Source text: (§1) Inhibition assay using inosine 5'-onophosphate dehydrogenase (IMPD).

[2] = target: Inosine-5'-monophosphate dehydrogenase (Streptococcus pyogenes, UniProt P0C0H6)
Chain of Inosine-5'-monophosphate dehydrogenase (Streptococcus pyogenes, UniProt P0C0H6) (P0C0H6 whole entry): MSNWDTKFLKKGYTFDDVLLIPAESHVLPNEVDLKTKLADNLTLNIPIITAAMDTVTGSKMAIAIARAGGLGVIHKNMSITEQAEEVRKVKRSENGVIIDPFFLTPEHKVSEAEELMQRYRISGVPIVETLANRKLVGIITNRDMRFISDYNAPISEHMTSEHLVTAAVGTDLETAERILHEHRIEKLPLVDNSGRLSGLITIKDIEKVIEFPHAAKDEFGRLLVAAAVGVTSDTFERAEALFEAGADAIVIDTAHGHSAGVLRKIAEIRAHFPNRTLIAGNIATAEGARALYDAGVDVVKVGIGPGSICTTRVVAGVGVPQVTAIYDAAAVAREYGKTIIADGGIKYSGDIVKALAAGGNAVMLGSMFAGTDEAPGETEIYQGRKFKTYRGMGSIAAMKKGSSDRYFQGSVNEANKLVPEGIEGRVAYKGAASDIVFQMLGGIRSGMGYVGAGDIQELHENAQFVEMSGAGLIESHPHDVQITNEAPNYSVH
Source text: as §1

[3] = target: T2, Inosine-5'-monophosphate dehydrogenase (Helicobacter pylori (strain G27), UniProt B5Z7J4)
T2 sequence (B5Z7J4 whole entry): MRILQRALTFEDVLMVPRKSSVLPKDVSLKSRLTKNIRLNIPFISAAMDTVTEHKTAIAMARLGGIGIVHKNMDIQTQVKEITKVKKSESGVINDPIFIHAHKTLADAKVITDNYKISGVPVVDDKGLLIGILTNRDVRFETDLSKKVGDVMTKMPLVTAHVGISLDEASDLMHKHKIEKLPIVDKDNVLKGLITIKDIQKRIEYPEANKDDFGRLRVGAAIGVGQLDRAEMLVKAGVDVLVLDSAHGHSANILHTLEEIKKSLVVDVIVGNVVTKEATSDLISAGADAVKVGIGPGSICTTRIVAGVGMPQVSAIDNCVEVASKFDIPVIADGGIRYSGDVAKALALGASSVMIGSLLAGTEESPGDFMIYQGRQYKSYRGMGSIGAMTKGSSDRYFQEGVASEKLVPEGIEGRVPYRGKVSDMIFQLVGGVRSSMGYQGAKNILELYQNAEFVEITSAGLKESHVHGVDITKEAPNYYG
Source text: as §1

[4] = target: T3, Inosine-5'-monophosphate dehydrogenase (Cryptosporidium parvum, UniProt Q8T6T2)
T3 sequence (Q8T6T2 whole entry): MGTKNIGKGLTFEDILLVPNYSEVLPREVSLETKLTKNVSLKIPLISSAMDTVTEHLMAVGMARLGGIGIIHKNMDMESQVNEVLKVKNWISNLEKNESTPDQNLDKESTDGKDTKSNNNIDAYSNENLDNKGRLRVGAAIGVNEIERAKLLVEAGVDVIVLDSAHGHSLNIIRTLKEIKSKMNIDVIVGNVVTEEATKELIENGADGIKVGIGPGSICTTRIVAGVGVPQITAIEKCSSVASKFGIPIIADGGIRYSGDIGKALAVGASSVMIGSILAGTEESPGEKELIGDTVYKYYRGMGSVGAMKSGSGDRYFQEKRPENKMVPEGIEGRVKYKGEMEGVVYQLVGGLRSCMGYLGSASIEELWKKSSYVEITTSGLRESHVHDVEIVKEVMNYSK
Source text: as §1

Row | IC50 [1] [nM] | IC50 [2] [µM] | IC50 [3] [nM] | IC50 [4] [nM] | SMILES
1 | 1400 | 96 | 2200 |  | CC(Oc1ccccc1)C(=O)Nc1ccc(Cl)cc1 (centres undefined)
2 | 220 | 0.55 | 300 | 100 | Nc1ccc(C(=O)OCc2nc3cc4ccccc4cc3[nH]2)cc1 [1H-naphtho[2,3-d]imidazol-2-ylmethyl 4-aminobenzoate, Compound G]
3 | 900 | 0.86 | 1200 | 900 | Nc1ccc(C(=O)OCCCc2nc3cc4ccccc4cc3[nH]2)cc1 [3-{1H-naphtho[2,3-d]imidazol-2-yl}propyl 4-aminobenzoate, Compound H]
4 | 1800 | 85 | 1300 | 1600 | COc1ccc(NC(=O)Cc2cccc3ccccc23)cc1 [N-(4-methoxyphenyl)-2-(naphthalen-1-yl)acetamide, Compound B]
5 | 600 | 70 | 600 | 1200 | COc1ccc(NC(=O)Cn2c(-c3cscn3)nc3ccccc32)cc1 [N-(4-methoxyphenyl)-2-[2-(1,3-thiazol-4-yl)-1H-1,3-benzodiazol-1-yl]acetamide, Compound C]
6 | 800 | 13 | 1100 | 1400 | CCn1c(SCC(=O)Nc2ccc(OC)cc2)nc2ccsc2c1=O [l-4-oxo-3H,4H-thieno[3,2-d]pyrimidin-2-yl}sulfanyl)-N-(4-methoxyphenyl)acetamide, Compound F]
7 | 900 | 15 | 1500 | 1600 | COC(=O)c1c(C)c(=O)[nH]c2ccccc12 [methyl 3-methyl-2-oxo-1,2-dihydroquinoline-4-carboxylate, Compound E]

Row | SMILES | IC50 [1] [nM] | IC50 [2] [µM] | IC50 [3] [nM] | IC50 [4] [nM]
8 | COc1ccc(NC(=O)Cc2nn(C)c(=O)c3ccccc23)cc1 [N-(4-methoxyphenyl)-2-(3-methyl-4-oxo-3,4-dihydrophthalazin-1-yl)acetamide, Compound D] | 1700 | 49 | 3000 | 5400
9 | O=C(Cn1c(-c2ccccn2)nc2ccccc21)Nc1ccc2ccccc2c1 [N-(naphthalen-2-yl)-2-[2-(pyridin-2-yl)-1H-1,3-benzodiazol-1-yl]acetamide, Compound C91] |  | 0.0054 | 1.1 | 8
